In US20050234046A1 (Kalypsys, Inc., priority 2004, published 2005):

Legend:
Assay in all cases: Transient transfection (transactivation) assay in CV-1 cells, GAL4-PPAR chimera, luciferase reporter
Type in all cases: cell-based
PPAR alpha = target: T1, PPAR alpha (Homo sapiens, UniProt Q07869)
T1 construct: expressed in transfected cells; host or cells: CV-1 cells
T1 sequence (Q07869 239-466 limits assumed): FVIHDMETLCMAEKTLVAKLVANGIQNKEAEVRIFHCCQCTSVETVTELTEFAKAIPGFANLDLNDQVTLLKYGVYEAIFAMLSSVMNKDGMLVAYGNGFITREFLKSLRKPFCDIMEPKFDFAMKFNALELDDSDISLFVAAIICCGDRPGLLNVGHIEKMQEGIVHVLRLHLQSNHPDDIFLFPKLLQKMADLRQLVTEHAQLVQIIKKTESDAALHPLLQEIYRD
In short: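 EC50 and efficacy come from a luciferase read-out after 20-24 hours of compound exposure (vehicle 1% DMSO) in transiently transfected CV-1 cells. These cells express a GAL4-PPAR ligand-binding-domain chimera plus a reporter with four or five GAL4 binding sites, and are kept in phenol-red free DME with 5% delipidated calf serum.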

PPAR delta = target: T2, PPAR delta (Homo sapiens, UniProt Q03181)
T2 construct: expressed in transfected cells; host or cells: CV-1 cells
T2 sequence (Q03181 211-439 limits assumed): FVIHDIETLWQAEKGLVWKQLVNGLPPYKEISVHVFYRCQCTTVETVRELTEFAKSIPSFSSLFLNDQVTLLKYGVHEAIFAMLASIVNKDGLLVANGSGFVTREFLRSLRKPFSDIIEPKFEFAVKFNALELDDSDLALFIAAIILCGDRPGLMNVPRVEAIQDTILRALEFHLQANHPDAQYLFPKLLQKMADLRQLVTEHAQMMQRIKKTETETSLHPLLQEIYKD

PPAR gamma = target: T3, PPAR gamma (Homo sapiens, UniProt P37231)
T3 construct: expressed in transfected cells; host or cells: CV-1 cells
T3 sequence (P37231 238-503 limits assumed): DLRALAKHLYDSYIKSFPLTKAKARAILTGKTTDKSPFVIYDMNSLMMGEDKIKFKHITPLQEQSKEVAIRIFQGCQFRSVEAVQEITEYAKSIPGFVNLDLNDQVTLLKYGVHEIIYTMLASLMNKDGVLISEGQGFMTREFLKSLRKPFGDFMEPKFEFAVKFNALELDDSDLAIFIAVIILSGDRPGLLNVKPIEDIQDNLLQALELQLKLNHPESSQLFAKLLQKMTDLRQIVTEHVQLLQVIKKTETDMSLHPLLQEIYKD

| SMILES | EC50 (PPAR alpha) [µM] | EC50 (PPAR delta) [µM] | EC50 (PPAR gamma) [µM] |
| --- | --- | --- | --- |
| C[C@@H]1CN(c2ccc(C(F)(F)F)cn2)C[C@H](C)N1S(=O)(=O)c1cc(CC(=O)O)cc(C(F)(F)F)c1 [Example 204, {3-[2,6-Dimethyl-4-(5-trifluoromethyl-pyridin-2-yl)-piperazine-1-sulfonyl]-5-trifluoromethyl-phenyl}-acetic acid] | > 100 | < 5 | > 100 |
| COc1ccc(S(=O)(=O)N2[C@H](C)CN(c3ccc(OC(F)(F)F)cn3)C[C@@H]2C)cc1CC(=O)O [Example 206, {5-[2,6-Dimethyl-4-(5-trifluoromethoxy-pyridin-2-yl)-piperazine-1-sulfonyl]-2-methoxy-phenyl}-acetic acid] | > 100 | < 5 | 5 to 100 |
| C[C@@H]1CN(c2ccc(OC(F)(F)F)cc2)C[C@H](C)N1S(=O)(=O)c1ccc(O)c(CC(=O)O)c1 [Example 209, {5-[2,6-Dimethyl-4-(4-trifluoromethoxy-phenyl)-piperazine-1-sulfonyl]-2-hydroxy-phenyl}-acetic acid] | > 100 | 5 to 100 | > 100 |
| O=C(O)COCc1cccc(S(=O)(=O)N2CCN(c3ccc(C(F)(F)F)cc3)CC2)c1 [Example 211, {3-[4-(4-Trifluoromethyl-phenyl)-piperazine-1-sulfonyl]-benzyloxy}-acetic acid] | > 100 | > 100 | > 100 |
| C[C@@H]1CN(c2ccc(C(F)(F)F)cn2)C[C@H](C)N1S(=O)(=O)c1cccc(CC(=O)O)c1 [Example 220, {3-[2,6-Dimethyl-4-(5-trifluoromethyl-pyridin-2-yl)-piperazine-1-sulfonyl]-phenyl}-acetic acid] | 5 to 100 | < 5 | > 100 |
| C[C@H]1CN(S(=O)(=O)c2cccc(CC(=O)O)c2)CCN1c1ccc(OC(F)(F)F)cc1 [Example 221, {3-[3-(s)-Methyl-4-(4-trifluoromethoxy-phenyl)-piperazine-1-sulfonyl]-phenyl}-acetic acid] | 5 to 100 | < 5 | 5 to 100 |
| Cc1cc(CC(=O)O)cc(S(=O)(=O)N2[C@H](C)CN(c3ccc(C(F)(F)F)c(F)c3)C[C@@H]2C)c1 [Example 222] | 5 to 100 | < 5 | > 100 |
| Cc1cc(CC(=O)O)cc(S(=O)(=O)N2CCN(c3ccc(OC(F)(F)F)cc3)CC2)c1 [Example 223, {3-Methyl-5-[4-(4-trifluoromethoxy-phenyl)-piperazine-1-sulfonyl]-phenyl}-acetic acid] | 5 to 100 | < 5 | 5 to 100 |
| Cc1cc(CC(=O)O)cc(S(=O)(=O)N2CCN(c3ccc(OC(F)(F)F)cc3)[C@@H](C)C2)c1 [Example 224, {3-Methyl-5-[3-(s)-methyl-4-(4-trifluoromethoxy-phenyl)-piperazine-1-sulfonyl]-phenyl}-acetic acid] | 5 to 100 | < 5 | 5 to 100 |
| Cc1cc(CC(=O)O)cc(S(=O)(=O)N2CCN(c3ccc(C(F)(F)F)cn3)CC2)c1 [Example 225] | 5 to 100 | < 5 | < 5 |
| C[C@H]1CN(c2ccc(OC(F)(F)F)cc2)CCN1S(=O)(=O)c1cccc(CC(=O)O)c1 [Example 226, {3-[2-(s)-Methyl-4-(4-trifluoromethoxy-phenyl)-piperazine-1-sulfonyl]-phenyl}-acetic acid] | 5 to 100 | < 5 | 5 to 100 |
| C[C@@H]1CN(S(=O)(=O)c2cccc(CC(=O)O)c2)C[C@H](C)N1c1ccc(C(F)(F)F)cn1 [Example 227, 2-(3-(-3,5-Dimethyl-4-(5-(trifluoromethyl)pyridine-2-yl)piperazin-1-ylsulfonyl)phenyl)acetic acid] | 5 to 100 | < 5 | < 5 |

Other lines, results leading:

| EC50 (PPAR alpha) [µM] | EC50 (PPAR delta) [µM] | EC50 (PPAR gamma) [µM] | SMILES |
| --- | --- | --- | --- |
| 5 to 100 | < 5 | 5 to 100 | O=C(O)Cc1cc(Br)cc(S(=O)(=O)N2CCN(c3ccc(OC(F)(F)F)cc3)CC2)c1 [Example 201, {3-Bromo-5-[4-(4-trifluoromethoxy-phenyl)-piperazine-1-sulfonyl]-phenyl}-acetic acid] |
| 5 to 100 | < 5 | 5 to 100 | O=C(O)Cc1cc(C(F)(F)F)cc(S(=O)(=O)N2CCN(c3ccc(C(F)(F)F)cc3)CC2)c1 [Example 202, {3-Trifluoromethyl-5-[4-(4-trifluoromethyl-phenyl)-piperazine-1-sulfonyl]-phenyl}-acetic acid] |
| 5 to 100 | < 5 | 5 to 100 | O=C(O)Cc1cc(C(F)(F)F)cc(S(=O)(=O)N2CCN(c3ccc(C(F)(F)F)cn3)CC2)c1 [Example 203, {3-Trifluoromethyl-5-[4-(5-trifluoromethyl-pyridin-2-yl)-piperazine-1-sulfonyl]-phenyl}-acetic acid] |
| 5 to 100 | < 5 | 5 to 100 | Cc1ccc(S(=O)(=O)N2CCN(c3ccc(C(F)(F)F)cn3)C(C(F)(F)F)C2)cc1CC(=O)O (stereo not drawn) [Example 205, {2-Methyl-5-[3-trifluoromethyl-4-(5-trifluoromethyl-pyridin-2-yl)-piperazine-1-sulfonyl]-phenyl}-acetic acid] |
| 5 to 100 | < 5 | 5 to 100 | O=C(O)Cc1cc(S(=O)(=O)N2CCN(c3ccc(C(F)(F)F)cn3)CC2)ccc1O [Example 207, {5-[4-(5-trifluoromethyl-pyridin-2-yl)-piperazine-1-sulfonyl]-2-hydroxy-phenyl}-acetic acid] |
| 5 to 100 | < 5 | > 100 | O=C(O)Cc1cc(S(=O)(=O)N2CCN(c3ccc(C(F)(F)F)cc3)CC2)ccc1O [Example 208, {5-[4-(4-trifluoromethyl-phenyl)-piperazine-1-sulfonyl]-2-hydroxy-phenyl}-acetic acid] |
| 5 to 100 | 5 to 100 | 5 to 100 | O=C(O)CSCc1cccc(S(=O)(=O)N2CCN(c3ccc(C(F)(F)F)cc3)CC2)c1 [Example 210, {3-[4-(4-Trifluoromethyl-phenyl)-piperazine-1-sulfonyl]-benzylsulfanyl}-acetic acid] |
| 5 to 100 | > 100 | 5 to 100 | CC(C)(OCc1cccc(S(=O)(=O)N2CCN(c3ccc(C(F)(F)F)cc3)CC2)c1)C(=O)O [Example 212, 2-Methyl-2-{3-[4-(4-trifluoromethyl-phenyl)-piperazine-1-sulfonyl]-benzyloxy}-propionic acid] |
| 5 to 100 | < 5 | 5 to 100 | Cc1cc(CC(=O)O)cc(S(=O)(=O)N2CCN(c3ccc(OC(F)(F)F)cc3)C[C@@H]2C)c1 [Example 213, {3-Methyl-5-[2-(S)-methyl-4-(4-trifluoromethoxy-phenyl)-piperazine-1-sulfonyl]phenyl}-acetic acid] |
| 5 to 100 | < 5 | 5 to 100 | Cc1ccc(S(=O)(=O)N2CCN(c3ccc(OC(F)(F)F)cc3)C[C@@H]2C)cc1CC(=O)O [Example 214, {2-Methyl-5-[2-(S)-methyl-4-(4-trifluoromethoxy-phenyl)-piperazine-1-sulfonyl]-phenyl}-acetic acid] |
| 5 to 100 | < 5 | 5 to 100 | C[C@H]1CN(c2ccc(C(F)(F)F)c(F)c2)CCN1S(=O)(=O)c1cccc(CC(=O)O)c1 [Example 215, {3-[4-(3-Fluoro-4-trifluoromethyl-phenyl)-2-(S)-methyl-piperazine-1-sulfonyl]-phenyl}-acetic acid] |
| 5 to 100 | < 5 | 5 to 100 | Cc1cc(CC(=O)O)cc(S(=O)(=O)N2CCN(c3ccc(C(F)(F)F)c(F)c3)C[C@@H]2C)c1 [Example 216, {3-[4-(3-Fluoro-4-trifluoromethyl-phenyl)-2-(S)-methyl-piperazine-1-sulfonyl]-5-methyl-phenyl}-acetic acid] |
| 5 to 100 | < 5 | 5 to 100 | Cc1ccc(S(=O)(=O)N2CCN(c3ccc(C(F)(F)F)c(F)c3)C[C@@H]2C)cc1CC(=O)O [Example 217, {5-[4-(3-Fluoro-4-trifluoromethyl-phenyl)-2-(S)-methyl-piperazine-1-sulfonyl]-2-methyl-phenyl}-acetic acid] |
| < 5 | < 5 | 5 to 100 | C[C@H]1CN(S(=O)(=O)c2cccc(CC(=O)O)c2)CCN1c1ccc(C(F)(F)F)c(F)c1 [Example 218, {3-[4-(3-Fluoro-4-trifluorometbyl-phenyl)-3-(S)-methyl-piperazine-1-sulfonyl]-phenyl}-acetic acid] |
| 5 to 100 | < 5 | 5 to 100 | Cc1cc(CC(=O)O)cc(S(=O)(=O)N2CCN(c3ccc(C(F)(F)F)c(F)c3)[C@@H](C)C2)c1 [Example 219] |
